Kd and Activity data for 7 molecules are collected here from ChEMBL document CHEMBL1143115, “Synthesis and biological properties of beta-turned Abeta(31-35) constrained analogues” (Bioorg Med Chem Lett, 2008).

One may read the Kd as the free concentration of one partner at which half of the binding sites on the other are occupied at equilibrium, for simple one-to-one binding. Lower therefore signals a tighter complex.

A short description of data set [1]: Binding affinity to immobilized amyloid beta 25-35 by Surface plasmon resonance. On the technique in general: SPR reads the build-up and loss of mass on a sensor chip optically.
Data set [2] can be described thus: Neurotoxicity in Wistar rat neuronal cells assessed as induction of mortality at 100 uM. In kind it is toxicity, cell-based.
Data set [3] in a line: Neurotoxicity in Wistar rat neuronal cells assessed as induction of mortality at 10 uM. In kind it is toxicity, cell-based.
Data set [4] is described as follows: Protective effect against beta amyloid oligomers induced toxicity in Wistar rat neuronal cells at 100 uM. Format: functional.

Where a SMILES comes first, the peptide text is derived from it. [ ]: non-standard residue; d: D form. αMeP = C[C@@]1(C(=O)O)CCCN1; Aze = O=C(O)[C@@H]1CCN1; Aib = CC(C)(N)C(=O)O

The molecule `CC[C@H](C)[C@H](N)C(=O)N[C@H](C(=O)N1CC[C@H]1C(=O)N[C@@H](CC(C)C)C(=O)N[C@@H](CCSC)C(N)=O)[C@@H](C)CC` (H-II[Aze]LM-NH2) yielded a Kd in data set [1] of 4.6 mM. For `CC[C@H](C)[C@H](N)C(=O)N[C@H](C(=O)NCC(=O)N[C@@H](CC(C)C)C(=O)N[C@@H](CCSC)C(N)=O)[C@@H](C)CC` (H-IIGLM-NH2), the Activity in data set [2] and in data set [3] was 10% in each case. The molecule `CC[C@H](C)[C@H](N)C(=O)N[C@H](C(=O)NC(C)(C)C(=O)N[C@@H](CC(C)C)C(=O)N[C@@H](CCSC)C(N)=O)[C@@H](C)CC` (H-II[Aib]LM-NH2) showed a Kd in data set [1] of 2.56 mM. Further, the Activity in data set [4] worked out at 24%. In turn, `CC[C@H](C)[C@H](N)C(=O)N[C@H](C(=O)N1CCC[C@H]1C(=O)N[C@@H](CC(C)C)C(=O)N[C@@H](CCSC)C(N)=O)[C@@H](C)CC` (H-IIPLM-NH2) came in with a Kd in data set [1] of 4.49 mM. On the same count and under the same terms, as for `Nc1c(/N=N/c2ccc(-c3ccc(/N=N/c4cc(S(=O)(=O)O)c5ccccc5c4N)cc3)cc2)cc(S(=O)(=O)O)c2ccccc12` [CONGO RED], the figure is 0.013 mM. With `CC[C@H](C)[C@H](N)C(=O)N[C@H](C(=O)NCC(=O)N[C@@H](CC(C)C)C(=O)N[C@@H](CCSC)C(=O)O)[C@@H](C)CC` (H-IIGLM-OH), the Activity in data set [3] was 21%. In turn, `CC[C@H](C)[C@H](N)C(=O)N[C@H](C(=O)N1CCC[C@@]1(C)C(=O)N[C@@H](CC(C)C)C(=O)N[C@@H](CCSC)C(N)=O)[C@@H](C)CC` (H-II[αMeP]LM-NH2) had a Kd in data set [1] of 1.53 mM.
